These results are taken from patent US8993330B2, “Composition for a mitotic remodeling of chromosomes” (Centre National de la Recherche Scientifique, priority 2005, dated 2015).

One assay concerns sperm nuclei. The assay can be described thus: DNA replication of sperm nuclei in Xenopus S-phase egg extract (32P-dCTP incorporation, TCA precipitation). The class given is biochemical. The settings on record: for replication rate of sperm chromatin: 300 μM TSA and 300 μM CTPB. The protocol: (§1) 5 μl samples were taken at different times and DNA replication was monitored by TCA precipitation of ^32PαdCTP incorporated into DNA.
Sperm chromatin was incubated in S-phase extract in the presence of 50 μg/ml ICRF193 at the beginning of the reaction or after 45 min (during the elongation phase). DNA replication was monitored by TCA precipitation of the replicated DNA.
(§2) Demembranated sperm nuclei were prepared and used as described in (Menut et al., 1999), and erythrocyte nuclei were purified from Xenopus blood as described. Nuclei were incubated in S-phase (1,000 nuclei/μl), or M-phase (CSF) extracts that were activated with 1 mM CaCl2. DNA synthesis was measured by ^32P-dCTP incorporation, as previously described (Menut et al., 1999).

The next assay concerns erythrocyte nuclei. Nature of the assay: DNA replication of erythrocyte nuclei in Xenopus egg extracts (32P-dCTP incorporation, TCA precipitation). The settings on record: for replication rate of erythrocyte nuclei: permeabilized erythrocyte nuclei in S-phase extract, 300 μM TSA, 600 μM CTPB or 300 μM AA. The assay is classed as biochemical. The protocol: FIG. 1B: Permeabilized erythrocyte nuclei were incubated in S-phase or M-phase extract for 45 minutes before CaCl2 activation to trigger S phase. 5 μl samples were taken at different times. DNA replication was monitored by TCA precipitation of ^32PαdCTP incorporated into DNA and expressed as the percentage replicated DNA compared to the total input DNA. Sperm nuclei incubated in S-phase extract were used as a control.
as §1
FIG. 5A: Erythrocyte chromatin was incubated either in M-phase extract and immediately driven into S phase by Ca^++, or in M-phase extract for 45 min before induction into S phase by Ca^++ in the absence or presence of ICRF. Control sperm chromatin in M-phase extracts induced to enter S phase by calcium is shown. The amount of nuclei was 1000 nuclei/μl egg extract for sperm nuclei, and 500 nuclei/μl egg extract for erythrocyte nuclei to keep the chromatin concentration constant.
as §2

Assay [1] relates to erythrocyte or sperm nuclei. The assay can be described thus: Chromosome condensation of nuclei in mitotic egg extract (Hoechst staining). The settings on record: erythrocyte or sperm nuclei in M-phase extract; 50 μg/ml. The class given is biochemical, Xenopus. The protocol: FIG. 5B: Demembranated erythrocyte nuclei or sperm nuclei were incubated in a mitotic egg extract in the presence or absence of 50 μg/ml of the topoisomerase II inhibitor ICRF193. DNA was stained with Hoechst dye for chromosome formation analysis.

A further assay deals with chromatin loop domains. The assay can be described thus: DNA loop size by maximum fluorescent halo technique (MFHT). The class given is biochemical, Xenopus. The protocol:
FIG. 4D: Nuclei were recovered on coverslips and submitted to the maximum fluorescent halo technique (MFHT) for DNA loop size measurements (Material and Methods).
FIG. 7C: Sperm nuclei collected at different times during replication or following M-phase were recovered on coverslips and submitted to MFHT for DNA loop size measurements. Entry into mitosis was induced by incubating post-replicate embryo nuclei in M-phase extract in the presence or absence of ICRF.
Maximum Fluorescent Halo Radius (MFHR) were determined by treating non-fixed nuclei on coverslips. They were first dipped for 1 min in ice cold NP40 buffer (0.5% NP40, 10 mM MgCl2, 0.5 mM CaCl2, 50 mM Hepes pH 7.8) and then sequentially dipped for 30 s in a solution containing 0.2 mM MgCl2, 10 mM Tris (pH 7.4) with 0.5 M, 1 M, 1.5 M, 2 M NaCl. They were then incubated in 100 μg/ml ethidium bromide, 2 M NaCl and exposed for 1 min to short wave UV light before observation by fluorescence (Buongiorno-Nardelli et al., 1982). Halo and matrix diameters were estimated using a micrometrics slide. DNA loop size was calculated taking into account that the loop size is 2 fold the MFHR. The length of linear DNA was calculated using the correspondence of 1 μm to 2.3 kbp.

The test system of a further assay is ORC2. The assay can be described thus: ORC2 recruitment to chromatin (chromatin purification, anti ORC2 immunoblot). The class given is biochemical, Xenopus. The protocol:
FIG. 5C: Chromatin was purified and proteins analyzed by SDS gel electrophoresis as described in Material and Methods. Erythrocyte nuclei (500 nuclei/μl egg extract) or sperm nuclei (1000 nuclei/μl egg extract) were incubated in a mitotic egg extract, induced to enter S phase with calcium, in the presence (+) or absence (−) of ICRF 193. Chromatin was purified 30 min after calcium activation and analyzed by immunoblot with a Xenopus anti ORC2 antibody.
50 μl samples were diluted with 5 volumes of extract buffer (XB: 100 mM KCl, 0.1 mM CaCl2, 1 mM MgCl2, 10 mM KOH-Hepes pH 7.7, 50 mM sucrose) and pelleted by centrifugation at 7500 g for 12 min through a 0.7 M sucrose cushion. Nuclear pellets were resuspended in XB, 0.3% Triton X-100 and incubated for 5 min on ice. After a further 5,000 g centrifugation for 5 min, chromatin pellets were recovered and adjusted in Laemmli Buffer.

Where [2] appears, read: sperm nuclei in S-phase extract.
Where [3] appears, read: inhibitor present during mitotic remodeling in M-phase extract, chromatin purified 30 min after calcium activation.

On to `CC(/C=C/C(=O)NO)=C\[C@@H](C)C(=O)c1ccc(N(C)C)cc1` [TSA, trichostatin], for which, in the assay on sperm nuclei (setting [2]), the “replication rate of sperm chromatin” value is given as “no significant effect”. In the assay with erythrocyte nuclei, the “replication rate of erythrocyte nuclei” value is on record as “failed to significantly affect”.
Take ICRF 193: the chromosome condensation entry in assay [1] is “prevented chromosome condensation”. In the assay with chromatin loop domains (post-replicative embryonic nuclei in M-phase extract), the “mitotic remodeling (loop size reduction) of post-replicative nuclei” value is on record as “blocked”. For the same compound, in the assay on chromatin loop domains (sperm nuclei during replication in S phase, data not shown), the “S-phase dependent increase in loop size” value was “prevented”. In addition, in the assay with sperm nuclei (S-phase extract, 50 μg/ml at the beginning of the reaction or after 45 min), the “DNA replication of sperm chromatin” value was “does not interfere with DNA replication”. The “rate of replication of erythrocyte nuclei” value with erythrocyte nuclei (45 min in M-Phase extract containing ICRF 193 before S phase induction) is listed as “very low rate of replication”. Besides, the ORC recruitment result with ORC2 (inhibition of loop size remodeling, post-replicative embryonic nuclei and erythrocyte nuclei) is “decreases”. In the assay with ORC2 (setting [3]), the “recruitment of ORC2 onto erythrocyte chromatin for the subsequent S-phase” value is “dramatically reduced” and the “recruitment of ORC2 onto sperm chromatin for the subsequent S-phase” value is “not”.
Take `CCCCCCCCCCCCCCCc1cccc(OCC)c1C(=O)Nc1ccc(Cl)c(C(F)(F)F)c1` [CTPB]: the “reversal of AA inhibition of sperm nuclei replication” value with sperm nuclei (S-phase extract, prior incubation of 600 μM CTPB, 300 μM AA) is “reversed”. Moreover, the “replication rate of sperm chromatin” value in the assay with sperm nuclei (setting [2]) was “no significant effect”. In addition, the “replication rate of erythrocyte nuclei” value in the assay on erythrocyte nuclei is on record as “failed to significantly affect”.
With `CCCCCCCCCCCCCCCc1cccc(O)c1C(=O)O` [AA, anacardic acid], the “replication of sperm nuclei” value in the assay with sperm nuclei (sperm nuclei in S-phase extract, 300 μM AA) is on record as “strongly inhibited”. For the same compound, the “sensitivity of replication of erythrocyte nuclei remodeled in mitosis” value in the assay on erythrocyte nuclei (45 min in M-phase extract, then S-phase extract containing 300 μM AA) was “as sensitive as sperm nuclei”. For the same compound, in the assay on erythrocyte nuclei, the “replication rate of erythrocyte nuclei” value is listed as “did not further inhibit”.
